Here are results for one molecule from patent publication US20240016784A1, “Y BOX BINDING PROTEIN 1 INHIBITORS” (Oregon Health & Science University, priority 2020, published 2024).

For data set [1], the system named is OVCAR8, SKOV3, and ID8 cells. Kind of data set: Cell cycle analysis (propidium iodide, flow cytometry). It counts as cell-based. As for the experimental part:
(§1) To determine whether proliferation inhibition was the dominant factor driving the reduction in OC viability seen with AzP treatment, we used propidium iodide and annexin-FITC stains with flow cytometry to measure the distribution of cell cycle phases after treatment. […] Furthermore, in the Boyden chamber assay for cell migration, SU093 inhibited cell migration by 40-46% (1 μM, P<0.05) in different OC cell lines.
Cell cycle analysis: 30,000 OC cells were plated in each well of 12 well plates and incubated for 24 h. […] Both live and dead cells were collected via trypsinization and cell pellets were fixed with 70% ethanol. Fixed cells were stained using propidium iodide (PI) cocktail (80 μg/mL RNase A and 50 μg/mL PI in saponin-EDTA solution) and incubated at 4° C. overnight. Each sample was analyzed using a Guava® easyCyte™ Flow Cytometer (Millipore, Burlington, MA). FlowJo software calculated the % cells in each cell cycle phase.
(§2) FIG. 1A) Lead optimization of SU093 to obtain SU056. FIG. 1B) IC50 values of SU093 and SU056 on various ovarian cancer cells. Clonogenic survival of OC cells treated with SU093 or SU056. […] FIG. 1C) Representative colony formation from respective wells. FIG. 1D) Number of colonies formed after SU093 and SU056 treatment. […] FIG. 1F) Cell cycle distribution of propidium iodide (PI)-stained OVCAR8, SKOV3, and ID8 cells. […] FIG. 1G) Effects of SU093 and SU056 on apoptotic cell death analyzed by Annexin-FITC staining. […] FIG. 1H) Cell migration assay.
In general terms: In flow cytometry, cells or beads pass a laser one at a time.

Data set [2] can be described thus: Tolerability of SU056 at increasing concentrations. The conditions noted are these: for death: different concentration; for tolerability: increasing concentrations. The data set is classed as in vivo. The source says:
FIGS. 15A-15E. […] SU056 treatment at increasing concentrations dose not challenge the dietary behavior as reflected by change in body weight FIG. 15A) Mice and FIG. 15B) Rat. […] Liver microsomes were used for the purpose of metabolic profiling.

The subject of data set [3] is ovarian cancer cells. Kind of data set: Apoptotic cell death assay (Annexin-FITC). The data set is classed as cell-based. The conditions noted are these: 24 h treatment; Annexin-FITC staining. As for the experimental part:
as §1
Apoptotic cell death assay: Cells were plated and treated as described in cell cycle analysis assay above. Treated cells were incubated for 24 h and both live and dead cells were collected. Cells were stained with Annexin V and PI using FITC Annexin V apoptosis detection kit (BD Pharmingen, San Jose, CA) by following the manufacturer's protocol. Guava® easyCyte™ Flow Cytometer was used to analyze the stained cells.
as §2

Data set [4] has as its system MOLT-4. Kind of data set: NCI-60 cell line panel. It counts as cell-based. Conditions: Homo sapiens, 48 hours. The source says:
(§3) FIG. 17: Assay of SU056 in NCI-60 cell line panel.

The subject of data set [5] is MDA-MB-435. Kind of data set: NCI-60 cell line panel. It counts as cell-based. The conditions noted are these: Homo sapiens, 48 hours.
From the text: as §3

In data set [6] the test system is HCC-2998. Kind of data set: NCI-60 cell line panel. The conditions noted are these: Homo sapiens, 48 hours. The data set is classed as cell-based.
From the text: as §3

For data set [7], the system named is OVCAR-5. Kind of data set: NCI-60 cell line panel. The data set is classed as cell-based. Conditions: Homo sapiens, 48 hours.
From the text: as §3

The subject of data set [8] is K-562. Kind of data set: NCI-60 cell line panel. The data set is classed as cell-based. Conditions: Homo sapiens, K562, 48 hours.
From the text: as §3

Data set [9] has as its system HOP-62. Kind of data set: NCI-60 cell line panel. It counts as cell-based. The conditions noted are these: Homo sapiens, 48 hours.
From the text: as §3

For data set [10], the system named is NCI-H460. Kind of data set: NCI-60 cell line panel. The data set is classed as cell-based. Conditions: Homo sapiens, 48 hours.
From the text: as §3

Data set [11] relates to SF-295. Kind of data set: NCI-60 cell line panel. It counts as cell-based. Conditions: Homo sapiens, 48 hours.
From the text: as §3

Data set [12] has as its system UACC-62. Kind of data set: NCI-60 cell line panel. Conditions: Homo sapiens, 48 hours. It counts as cell-based.
From the text: as §3

Data set [13] concerns SW-620. Kind of data set: NCI-60 cell line panel. The data set is classed as cell-based. The conditions noted are these: Homo sapiens, 48 hours.
From the text: as §3

Data set [14] deals with HCT-15. Kind of data set: NCI-60 cell line panel. It counts as cell-based. The conditions noted are these: Homo sapiens, 48 hours.
From the text: as §3

Data set [15] deals with T1, YB-1 in OVCAR4, OVCAR8, and SKOV3 cells (Homo sapiens, UniProt P67809).
T1 construct: endogenous in cells; host or cells: OVCAR4, OVCAR8, SKOV3
T1 sequence (P67809 whole entry): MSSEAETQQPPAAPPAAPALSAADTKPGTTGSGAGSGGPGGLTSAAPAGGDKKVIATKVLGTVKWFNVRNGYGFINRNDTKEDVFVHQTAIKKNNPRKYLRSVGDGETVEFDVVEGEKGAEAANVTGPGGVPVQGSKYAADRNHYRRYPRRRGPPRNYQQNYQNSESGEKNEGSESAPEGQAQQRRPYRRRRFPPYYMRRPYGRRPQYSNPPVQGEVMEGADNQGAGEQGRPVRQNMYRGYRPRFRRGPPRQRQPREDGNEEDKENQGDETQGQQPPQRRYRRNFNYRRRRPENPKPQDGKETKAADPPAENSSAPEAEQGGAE
Kind of data set: YB-1 inhibition time kinetics (YB-1 ELISA). The data set is classed as cell-based. The conditions noted are these: 5 μM treatment for 24 h; all three OC cells. As for the experimental part: Out of six targets identified, we selected proteins whose thermal shift is above 5° in the presence of SU056 for further study of protein expression after treatment. […] To study the in vivo effects of SU056 treatment, we analyzed ID8 tumor xenograft samples via immunohistochemistry (IHC). […] To identify the broader effects of SU056 on YB-1 and its downstream protein/activity in different ovarian cancer cell lines, we selected six different cell lines and treated them with SU056 (2.5 μM) for 12 h. Cells were analyzed for YB-1 and CD44 expression and Multidrug resistance 1 (MDR1, ABC pump mediated efflux). […] Finally, we tested the time kinetics and dose-dependent effects of SU056 on YB-1 expression. OVCAR4, OVCAR8, and SKOV3 cells were treated with SU056 (1, 2.5, and 5 μM) for 3, 6, 12, and 24 h and YB-1 expression was measured using YB-1 ELISA. […]
Total YB-1 sandwich ELISA: Total YB-1 protein level was analyzed using PathScan® Total YB1 Sandwich ELISA Kit (Cell Signaling, #12543) by following the manufacturer's protocol.
FIGS. 4A-4E: SU056 inhibits YB-1. […] FIG. 4C) Respective OC cells were treated with 2.5 μM SU056 for 12 h and YB-1 & CD44 expression and multidrug resistance activity was measured as described in the ‘method’ section. The % inhibition was calculated and compared to the control for the respective cell line. […]

As for `O=C1OCC2=C1C(c1cccc(F)c1)c1cc3c(cc1N2CCO)OCO3` (stereo not shown) [SU056, 9-(3-fluorophenyl)-5-(2-hydroxyethyl)-6,9-dihydro-[1,3]dioxolo[4,5-g]furo[3,4-b]quinolin-8(5H)-one], the cell cycle distribution result in [1] (12 h treatment, PI-stained OVCAR8, SKOV3, ID8) is “G1 phase arrest”. The “cell cycle arrest, comparison of SU056 with SU093” value in data set [1] (OC lines) is on record as “greater cell cycle arrest than SU093”. Also, the death entry in [2] (mice) and in [2] (rat) was “did not cause death” each time. The tolerability entry in data set [2] (mice) and in data set [2] (rat) was “well tolerated” each time. In data set [3], the apoptotic cell death result is reported as “induce apoptotic cell death”. Further, the IC50 turned out to be 3020 nM in [4]; 187 nM in data set [5]; 7060 nM in data set [6]; 4330 nM in data set [7]; 353 nM in data set [8]; 2190 nM in data set [9]. The IC50 in data set [10] stood at 2080 nM; in data set [11], 1200 nM; in data set [12], 2250 nM; in data set [13], 1650 nM; in [14], 1080 nM. The YB-1 inhibition in data set [15] is listed as 100%.

One may read the IC50 as the point on the concentration scale where inhibition reaches its midpoint. Read a low IC50 as inhibition by little substance.
